The test system of this test is P. falciparum 3D7 growth, pLDH absorbance. The test can be described thus: P. falciparum 3D7 growth inhibition, dose response, strain 3D7 (AID 2305).

The values below come from PubChem BioAssay AID2305 (GlaxoSmithKline (GSK), 2010).

With `CC(C)c1ccc(NC(=O)NC2CCN(CCCCCNC(=O)/C=C/c3ccc(Cl)c(Cl)c3)CC2)cc1`, the IC50 (as a rule, the point on the concentration scale where inhibition reaches its midpoint) came to 670 nM. In other words, the sub-micromolar range.
In turn, `O=C(Nc1ccc(C(F)(F)F)cc1)c1ccc(S(=O)(=O)NC2CCN(CC3CCCCC3)C2)cc1` (centres undefined) registered an IC50 of 720 nM.
The compound `COc1ccc(-n2ncc(C(=O)N3CCC4(C3)C(=O)N(c3ccccc3)c3ccccc34)c2C)cc1` (centres undefined) registered an IC50 of 930 nM.
`CCOc1ccc2nc(NC(=O)c3csnn3)sc2c1` registered an IC50 of 480 nM.
Compound `Cc1nc(-c2ccncc2)sc1C(=O)Nc1ccc(Cl)cc1C(=O)Nc1ccc(Cl)cc1` registered an IC50 of 760 nM.
In turn, `CCOC(=O)c1c(NC(=O)c2ccccc2)sc2c(O)c(CN(CC)CC)ccc12` displayed an IC50 of 970 nM.
For `CC(C)C[C@@H](/C=N/N1CCOC1=O)NC(=O)[C@H](CC(C)C)NC(=O)c1ccc(F)cc1` the value was 1170 nM.
In turn, `CC(C)NCc1ccc(-c2ccc(NC(=O)c3ccc(Cl)cc3)cc2)cc1` returned an IC50 of 910 nM.
To `COc1ccc2nc(C)cc(Nc3ccc(Cl)cc3)c2c1` belongs 950 nM.
For `O=C(/C=C/c1ccc(Cl)c(Cl)c1)NCCCCCN1CCCN(C(=O)Nc2cccc(F)c2)CC1` the value was 760 nM.
In the case of `O=C(Nc1ccc(-c2cccc(-c3nc4ccccc4[nH]3)c2)cc1)Nc1ccc2c(c1)OCO2`, the IC50 turned out to be 250 nM.
The compound `c1ccc2c(C3CCN(CCCCOc4ccc5c(c4)CCN(C4CCC4)CC5)CC3)c[nH]c2c1` displayed an IC50 of 710 nM.
`Cc1cc2ccccc2c(CON2C(N)=NC(N)=NC2(C)C)c1C`: the IC50 came to 10 nM.
For `CON=C1CCC(Cn2ccnc2)(c2ccc(Cl)cc2Cl)CC1` (centres undefined) the value was 880 nM; for `Cn1nc(-c2cccc(CNCCc3cccs3)c2)c2cnc(NC3CCCC3)nc21`, 1890 nM; for `NC(=O)c1cccc(CNCc2ccc(-c3cccc(-c4nc5ccccc5[nH]4)c3)cc2)c1`, 590 nM.
In turn, `NCc1cccc(-c2ccc3ccnc(N)c3c2)c1` gave an IC50 of 170 nM.
Regarding `CNC(=O)Cc1ccc(C(=O)Nc2cccc(-c3cccc(-c4nc5ccc(C(F)(F)F)cc5[nH]4)c3)c2)cc1`, the 50% inhibitory concentration (IC50) amounted to 440 nM.
With `CCCCn1c(Sc2ccc(C#N)c([N+](=O)[O-])c2)nnc1-c1cc(OC)cc(OC)c1`, the IC50 was found to be 820 nM. This IC50 is about 1.9-fold higher than that of the compound before.
To `COc1ccc(OC)c(NC(=O)c2c(-c3c(F)cccc3Cl)noc2C)c1` belongs 700 nM; to `O=C(/C=C/c1ccc(Cl)c(Cl)c1)NCCCCCN1CCCN(C(=O)Nc2cc(Cl)nc(Cl)c2)CC1`, 790 nM.
`CC(C)NCc1ccc(-c2cccc(NC(=O)c3cccc(C#N)c3)c2)cc1` gave an IC50 of 410 nM.
As to `O=[N+]([O-])c1cccc(-c2nc3ccc(C4=N[C@H]5CCCC[C@H]5N4)cc3[nH]2)c1`, the IC50 worked out at 200 nM. This IC50 lies about 2-fold lower than the previous one.
Take `COc1cc(NC(=O)c2sc(-c3ccc(Cl)cc3)cc2NC(=O)N2CCCC2)ccc1OCCN1CCCC1`: the IC50 was found to be 570 nM.
For `O=C(Nc1ccc(Cl)c(Cl)c1)N[C@H]1CCN(CCCCCNC(=O)[C@@H]2C[C@H]2c2ccc(Cl)c(Cl)c2)C1` the value was 1030 nM; for `O=C(Nc1ccc(-c2ccc(-c3nc4ccc(C(F)(F)F)cc4[nH]3)s2)cc1)c1ccoc1`, 850 nM; for `O=C(Nc1ccc(C(F)(F)F)cc1)NC1CCN(c2ccnc3ccccc23)C1` (centres undefined), 90 nM.
As to `CS(=O)(=O)N1CC2(CCN(CCC(NC(=O)NCc3ccccc3Cl)c3ccc(Cl)c(Cl)c3)CC2)c2ccccc21` (centres undefined), the IC50 was found to be 1110 nM.
Consider `COc1ccc2cc(-c3nc(-c4c(Cl)cccc4Cl)[nH]c3-c3ccnc(NCCCN4CCCCC4C)c3)ccc2c1` (centres undefined), for which the IC50 is 950 nM.
For `CC(C)(NCc1ccc(OC(F)(F)F)cc1)c1nc(-c2ccc(Cl)c(O)c2)c(-c2ccncc2)[nH]1` the value was 940 nM; for `O=C(Nc1ccc(F)cc1)NC1CCN(c2ccnc3cc(Cl)ccc23)C1` (centres undefined), 220 nM; for `Nc1nc2c(c(=O)[nH]1)CN(S(=O)(=O)c1ccc(C(=O)N[C@@H](CCC(=O)O)C(=O)O)cc1)CC2`, 150 nM.
In turn, `NC(=O)c1cccc(C(=O)Nc2cccc(-c3ccc(-c4nc5ccc(C(F)(F)F)cc5[nH]4)cc3)c2)c1` showed an IC50 of 520 nM.
Take `CC[C@H]1CN2CC[C@@H]1C[C@H]2[C@H](O)c1cc(N2CCC(O)(c3ccccc3)CC2)nc2ccc(OC)cc12`: the IC50 stood at 90 nM.
As for `CCCCCCCN1CC[C@@H](CCCc2ccnc3ccc(OC)cc23)[C@@H](CCN)C1`, the IC50 worked out at 750 nM.
The compound `Cc1cccc2[nH]c(-c3ccc(-c4ccc(CN5CCCC(O)C5)cc4)cc3)nc12` (centres undefined) came in with a concentration for half-maximal inhibition (IC50) of 860 nM.
To `CC[C@H]1CN2CC[C@@H]1C[C@H]2[C@H](O)c1cc(N2CCC(N3CCCCC3)CC2)nc2ccc(OC)cc12` belongs 270 nM; to `CS(=O)(=O)CCNCc1cc(-c2cc3ncnc(Nc4ccc(OCc5cccc(F)c5)c(Cl)c4)c3s2)cs1`, 330 nM.
For `O=C(N[C@H]1CCN(Cc2ccc(OCCCN3CCCCC3)cc2)C1)c1ccc(Cl)c(Cl)c1` the value was 780 nM; for `COc1cc2ncnc(Nc3ccc(OCc4ccccc4)c(C(F)(F)F)c3)c2cc1OC`, 250 nM.
To `c1cncc(CN2CCCN(c3ccc4c(c3)CCN(Cc3ccc(-c5ncc[nH]5)cc3)CC4)CC2)c1` belongs 750 nM.
On to `Cc1ccoc1C(=O)Nc1cccc(-c2cccc(-c3nc4ccc(C(F)(F)F)cc4[nH]3)c2)c1`, for which the IC50 worked out at 610 nM. The IC50 values of the last two compounds are within 1.5-fold of each other.
Take `O=C(Cc1ccc(NC(=O)c2ccc(O)c(-c3ccc(Cl)c(Cl)c3)c2)cc1)NCCN1CCCCC1`: the IC50 was 840 nM.
The compound `O=C(C=Cc1ccc(Cl)c(Cl)c1)NCCCCCN1CCCC(CCCNS(=O)(=O)c2cccc(C(F)(F)F)c2)C1` (centres undefined) registered an IC50 of 960 nM.
`Cc1c(C(=O)Nc2cc(Sc3ccc(F)cc3)cc([N+](=O)[O-])c2)sc2ncn(Cc3cccc(F)c3)c(=O)c12` gave an IC50 of 720 nM.
To `COC(=O)c1ccc(CC(C)NCC(O)c2cccc(Oc3cccc(C(F)(F)F)c3)c2)cc1` (centres undefined) belongs 1170 nM.
To `O=C(Nc1ccccc1)Nc1cccc(-c2cc(CNCCc3ccccc3)sc2-c2ccncc2)c1` belongs 600 nM.
To `CCCOc1cccc(C(=O)N[C@@H](Cc2ccccc2)[C@H](O)CNCc2ccccc2OC)c1` belongs 880 nM; to `O=C1c2ccc([N+](=O)[O-])cc2C(=O)N1c1ccc2[nH]ncc2c1`, 1150 nM; to `CC(=O)c1ccc(Nc2c(C(N)=O)cnc3cc(-c4c(C)noc4C)ccc23)cc1`, 190 nM.
As for `Cc1cc(C)c2[nH]cc(C(=O)O)c(=O)c2c1`, the IC50 was 880 nM.
For `Fc1cccc(CNc2ncc(-c3ccsc3)c(-c3nccs3)n2)c1` the value was 240 nM; for `Cc1ccccc1C1CCN(c2ncc(C(=O)NC3CC3)cc2Cl)CC1`, 700 nM.
Regarding `NC(=O)c1cccc(C(=O)Nc2cccc(-c3cccc(-c4nc5ccc(C(F)(F)F)cc5[nH]4)c3)c2)c1`, the half-inhibitory concentration (IC50) came out at 130 nM. This IC50 is about 5.4-fold lower than that of the compound before.
To `COc1ccccc1CCNc1nc(C)cc(N[C@@H](Cc2ccccc2)C(=O)Nc2ccccc2)n1` belongs 1020 nM; to `CCCCCN1CCCN(Cc2cccc(NC(=O)c3cc4ccccc4s3)c2)CC1`, 590 nM; to `O=C(/C=C/c1ccc2ccccc2c1)NCC1(c2ccc(-c3ccccc3)cc2)CCOCC1`, 1520 nM.
`O=C(C=Cc1ccc(Cl)c(Cl)c1)NCCCCCN1CCC(CCCNC(=O)/C=C/c2ccccc2)CC1` displayed an IC50 of 590 nM.
Compound `O=S(=O)(c1cc(Cl)ccc1Cl)N1CCCCC(c2ccc(C(F)(F)F)cc2)=N1` came in with an IC50 of 1000 nM. This IC50 lies about 1.7-fold higher than the previous one.
The compound `C=C[C@H]1CN2CC[C@H]1C[C@H]2[C@H](OS(=O)(=O)O)c1ccnc2ccccc12` displayed an IC50 of 620 nM. Compared with the last compound, the IC50 is about 1.6-fold lower.
In turn, `c1ccc2c3c(ccc2c1)Sc1c(ccc2ccccc12)N3` returned an IC50 of 1070 nM.
Turning to `CCn1c(-c2nonc2N)nc2c(-c3cc4ccccc4s3)ncc(C(=O)N3CCC(N)C3)c21` (centres undefined), the half-inhibitory concentration (IC50) worked out at 870 nM.
On to `COc1ccc2c(c1)CC1CN(CCCCNC(=O)c3ccc(NC(=O)c4cc(Cl)cc(Cl)c4)cc3)CCN1C2` (centres undefined), for which the IC50 was determined as 770 nM.
To `Cc1ccc(Nc2nccc(N(C)c3ccc4c(c3)nc(NC(=O)Cc3ccc(Cl)c(Cl)c3)n4C)n2)cc1S(N)(=O)=O` belongs 1110 nM.
Turning to `O=C(Cn1cc(C(F)(F)F)cc(Cl)c1=O)N1CCN(S(=O)(=O)c2ccc(Cl)cc2)CC1`, the IC50 stood at 900 nM.
Take `CN1CCCC(CN2CCN(Cc3cccc(-c4ccc(-c5nc6ccc(C(F)(F)F)cc6[nH]5)cc4)c3)CC2)C1` (centres undefined): the IC50 came to 150 nM.
To `Oc1ccccc1CCNC1CCc2ccccc2C1` (centres undefined) belongs 930 nM; to `Cc1c(Cc2ccc(C(C)C)cc2)cnc2nc(N)nc(N)c12`, 300 nM.
For `COc1ccc(NC(=O)c2ccc(-c3nc(-c4cccc(C(F)(F)F)c4)cs3)cc2)cc1N1CCN(C)CC1` the value was 820 nM; for `CC(=O)Nc1nc(-c2ccccc2)[nH]c1C(N)=O`, 250 nM; for `O=c1ccc2ncc(Cl)c3c2n1CC3CN1CCC(NCc2cc3c(cn2)OCCO3)CC1` (centres undefined), 960 nM.
In turn, `Cc1[nH]c(C)c(-c2cccc(Oc3ccc(Cl)cc3)c2)c(=O)c1Br` had an IC50 of 70 nM. Compared with the last compound, the IC50 is about 14-fold lower.
`CCOc1c(OC)ccc2c1CCN(CCN1CCC(NC(=O)c3ccc(-c4cccc(C(F)(F)F)c4C(F)(F)F)cc3)CC1)C2` registered an IC50 of 730 nM.
With `COc1cc(Nc2ncc3c(C)nc(-c4cc5ccccc5[nH]4)n3n2)cc(OC)c1OC`, the IC50 was 1020 nM.
`Cc1c(CCC#N)c(NCc2ccccc2)n2c(nc3ccccc32)c1C#N` showed an IC50 of 880 nM.
As to `O=C1C(c2ccccc2)=C(Nc2ccc(Cl)cc2)c2ccccc21`, the IC50 was 610 nM.
Compound `COc1ccc(NC(=O)Nc2ccc(-c3ccccc3)cc2Cl)cc1N1CCN(C)CC1` returned an IC50 of 870 nM. This IC50 and that of the compound before are within 1.5-fold of each other.
Take `Cc1csc(-c2nc(NCCc3c(C)noc3C)ncc2-c2ccsc2)n1`: the IC50 amounted to 180 nM. Against the preceding compound, the IC50 is about 4.8-fold lower.
In turn, `CC(C)NCC(O)Cn1c2ccc(Br)cc2c2cc(Br)ccc21` (centres undefined) had an IC50 of 450 nM.
`Cc1cc(N(C)C)nc(Nc2ccc(NC(=O)c3ccccc3F)cc2)n1` displayed an IC50 of 1160 nM. This IC50 lies about 2.6-fold higher than the previous one.
For the compound `COc1ccc(C(=O)Nc2ccc(Nc3nc(C)cc(N(C)C)n3)cc2)c(OC)c1`, the IC50 turned out to be 870 nM.
`Cc1[nH]c(C)c(-c2ccc(Oc3cc(Cl)cc(Cl)c3)cc2)c(=O)c1Br` showed an IC50 of 240 nM. This IC50 lies about 3.6-fold lower than the previous one.
In the case of `Cc1ccc(C(CC(=O)Nc2nccs2)c2ccc(OC(C)C)cc2)cc1` (centres undefined), the IC50 came out at 480 nM.
For `C=C[C@]1(C)C[C@@H](OC(=O)CNC[C@@H](O)CN2C[C@H](c3ccnc4ccc(OC)nc34)OC2=O)[C@]2(C)[C@H](C)CC[C@]3(CCC(=O)[C@H]32)[C@@H](C)[C@@H]1O` the value was 950 nM.
